The target of one assay is T1, full length Grk5 (Homo sapiens, UniProt P34947).
T1 construct: 2 µl 6/2 fold concentrated full length Grk5 (Millipore, #14-714) in reaction buffer is added to each well; purchased Millipore 14-714
In words: GRK5 kinase activity assay (ADP Glo Kinase Assay). The following applies: Table 5. Format: biochemical. As to the method:
Increasing concentrations of GRK5 are incubated together with 100 µM ATP in the absence and presence of 10 µM casein in a reaction buffer. Within this incubation non-phosphorylated casein is converted into phosphorylated casein and ATP is converted into ADP. Thereafter nonconverted ATP is digested into AMP by addition of the ADP-Glo™Reagent. Subsequently the ADP that is produced by GRK5 activity is phosphorylated back to ATP by addition of Promega Kinase Detection Reagent. These ATP levels serve as measure for the GRK5 activity and are quantified by a luciferase/luciferin reaction.
Km(ATP) was determined by measuring the GRK5 activity at increasing ATP concentrations.
The reaction buffer used was composed of: 20 mM MES pH 6.0, 1 mM DTT, 10 mM MgCl2, 0.01 % Tween20 and the reaction volume was 6µl.
Firstly 4 µl 6/4 fold concentrated substrate and 6/4 fold concentrated ATP in 1 fold concentrated reaction buffer are added to each well of the assay plate. Subsequently 67 nl 1000 fold concentrated test compound in 100 % DMSO are added to each well except to C- and C+ wells using pin tool. Then 67 nl 100 % DMSO are pipetted to C- (no kinase, no compound) and C+ (no compound) wells using pin-tool and 2 µl reaction buffer are added to C- wells. […] Finally, after incubation for 40 min at room temperature the luminescence intensity was measured. […]

The next assay addresses T2, GRK5 (Homo sapiens, UniProt P34947).
T2 construct: purchased Millipore (KinaseProfiler service)
Kind of assay: GRK5 radiometric filtration binding assay (Millipore KinaseProfiler). Format: biochemical. The note with it: Table 6. As to the method:
As alternative, IC50 values are determined by a radiometric based filtration binding assay, namely Millipore KinaseProfiler™. GRK5 is incubated with 8 mM MOPS pH7.0, 0.2 mM EDTA, 2 mg/mL casein, 10 mM MgAcetate and […] (specific activity approx. 500 cpm/pmol, concentration as required). The reaction is initiated by the addition of the MgATP mix. After incubation for 40 minutes at room temperature, the reaction is stopped by the addition of 3 % phosphoric acid solution. 10 µL of the reaction is then spotted onto a P30 filtermat and washed three times for 5 minutes in 75 mM phosphoric acid and once in methanol prior to drying and scintillation counting.

T1 sequence (P34947 whole entry): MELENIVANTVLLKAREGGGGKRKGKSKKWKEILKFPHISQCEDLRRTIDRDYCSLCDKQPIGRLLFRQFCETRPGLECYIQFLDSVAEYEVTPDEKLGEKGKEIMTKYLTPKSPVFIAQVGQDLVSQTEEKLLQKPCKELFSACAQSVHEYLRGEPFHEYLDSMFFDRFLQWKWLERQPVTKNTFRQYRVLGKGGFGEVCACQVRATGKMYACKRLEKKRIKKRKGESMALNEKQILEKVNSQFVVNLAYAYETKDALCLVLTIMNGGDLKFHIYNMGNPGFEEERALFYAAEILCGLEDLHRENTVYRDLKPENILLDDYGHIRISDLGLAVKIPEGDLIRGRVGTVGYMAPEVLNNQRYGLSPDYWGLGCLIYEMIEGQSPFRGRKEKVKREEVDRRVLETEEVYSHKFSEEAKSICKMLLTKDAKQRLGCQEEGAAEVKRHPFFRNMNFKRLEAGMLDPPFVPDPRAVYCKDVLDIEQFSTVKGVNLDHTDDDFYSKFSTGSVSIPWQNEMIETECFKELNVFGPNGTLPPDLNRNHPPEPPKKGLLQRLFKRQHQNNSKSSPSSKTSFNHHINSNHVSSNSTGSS
T2 sequence (P34947 whole entry): as above

In the case of `NC(=O)c1ccc(-c2cnc3ccc(Cc4ccc(F)cc4)nn23)cc1` [compound 1, 4-[6-[(4-fluorophenyl)methyl]imidazo[1,2-b]pyridazin-3-yl]benzamide], the half-maximal inhibitory concentration (IC50) lay in the range of 20 to 80 µM at full length Grk5 and 5 to 20 µM at GRK5.

(Values after patent EP2818471A1, “Nitrogen bicyclic compounds as inhibitors for Scyl1 and Grk5” (Max-Planck-Gesellschaft zur Förderung der Wissenschaften …, priority 2013, dated 2014).)
